Measured values reported in patent publication US5932608A, “Melatonin derivative dermocosmetic compositions for whitening/depigmenting the skin” (Societe L'Oreal S.A., priority 1996, dated 1999).

Columns and labels:
fungal tyrosinase = assay: in vitro test of inhibition of tyrosinase (dopachrome formation, 475 nm); assay type: biochemical; details: for inhibition of the tyrosinase activity (decrease in the percentage of formation of dopachrome): 25° C., pH 6.5, FIGS. 1 and 2
Text: According to this test, the amount of dopachrome formed during the reaction sequence for the conversion of tyrosine into melanins was monitored by visible spectrometry at 475 nm. These reactions were catalyzed in vitro by fungal tyrosinase, in the presence of a reductive co-substrate (for example L-dopa in small amounts) in order to initiate the hydroxylation reaction of the L-tyrosine into L-dopa, which was then oxidized catalytically into dopaquinone and then into dopachrome.
The concentration of dopachrome formed over time was thus measured in the presence and absence of the inhibitor. The inhibition effect is expressed by lowering the maximum amount of dopachrome formed (optical density value at 475 nm read at the plateau of the curve) relative to the amount obtained in the absence of inhibitor.
A. 0.1M phosphate buffer pH 6.5 (1% Tween 20)
B. Stock solution of 2×10^-3 M L-tyrosine in A
C. Stock solution of 10^-4 M L-dopa in A
D. Stock solution of fungal tyrosinase containing 2400 units/ml in A
E. Stock solution of the inhibitor at 10^-2 M in A
The solutions C and D were prepared on the day of use.
Reference cell: 3 ml of A
Homogenize and equilibrate at 25° C.
Mixed together rapidly and observed the kinetics by measuring the absorbance as a function of time.

skin pigmentation = details: exogenous melatonin; D. B. McElhinney et al., J. Invest. Dermatol, 102 (2), 258-9 (1994); cited from earlier work

| SMILES | inhibition of the tyrosinase activity (decrease in the percentage of formation of dopachrome) (fungal tyrosinase; 0.1 ml of solution E (inhibitor 10^-2 M stock) in 3 ml test cell) | inhibition of the tyrosinase activity (decrease in the percentage of formation of dopachrome) (fungal tyrosinase; 0.2 ml of solution E (inhibitor 10^-2 M stock) in 3 ml test cell) | inhibition of the tyrosinase activity (fungal tyrosinase; similar tests, amount of inhibitor not stated) | effect on skin pigmentation in man (skin pigmentation) |
| --- | --- | --- | --- | --- |
| COc1cc2c(CCNC(C)=O)c[nH]c2cc1O [6-hydroxymelatonin] | significant inhibition | significant inhibition | – | – |
| COc1ccc2[nH]cc(CCNC(C)=O)c2c1 [melatonin, N-acetyl-5-methoxytryptamine] | – | – | absence of inhibition | no effect |
